US12581252B2, “Substituted pyrrolo[3,4-b]pyridines as PI3K-α inhibitors” (Relay Therapeutics, Inc., priority 2020, dated 2026)

Key:
cells = settings: Homo sapiens, MCF-10A, read-out: MCF10A IC50
H1047R PIK3CA enzyme = H1047R PIK3CA enzyme (Homo sapiens, UniProt P42336, H1047R); assay: ADP-Glo Biochemical PIK3CA Kinase Assay
H1047R PIK3CA enzyme, sequence (P42336 whole entry H1047R): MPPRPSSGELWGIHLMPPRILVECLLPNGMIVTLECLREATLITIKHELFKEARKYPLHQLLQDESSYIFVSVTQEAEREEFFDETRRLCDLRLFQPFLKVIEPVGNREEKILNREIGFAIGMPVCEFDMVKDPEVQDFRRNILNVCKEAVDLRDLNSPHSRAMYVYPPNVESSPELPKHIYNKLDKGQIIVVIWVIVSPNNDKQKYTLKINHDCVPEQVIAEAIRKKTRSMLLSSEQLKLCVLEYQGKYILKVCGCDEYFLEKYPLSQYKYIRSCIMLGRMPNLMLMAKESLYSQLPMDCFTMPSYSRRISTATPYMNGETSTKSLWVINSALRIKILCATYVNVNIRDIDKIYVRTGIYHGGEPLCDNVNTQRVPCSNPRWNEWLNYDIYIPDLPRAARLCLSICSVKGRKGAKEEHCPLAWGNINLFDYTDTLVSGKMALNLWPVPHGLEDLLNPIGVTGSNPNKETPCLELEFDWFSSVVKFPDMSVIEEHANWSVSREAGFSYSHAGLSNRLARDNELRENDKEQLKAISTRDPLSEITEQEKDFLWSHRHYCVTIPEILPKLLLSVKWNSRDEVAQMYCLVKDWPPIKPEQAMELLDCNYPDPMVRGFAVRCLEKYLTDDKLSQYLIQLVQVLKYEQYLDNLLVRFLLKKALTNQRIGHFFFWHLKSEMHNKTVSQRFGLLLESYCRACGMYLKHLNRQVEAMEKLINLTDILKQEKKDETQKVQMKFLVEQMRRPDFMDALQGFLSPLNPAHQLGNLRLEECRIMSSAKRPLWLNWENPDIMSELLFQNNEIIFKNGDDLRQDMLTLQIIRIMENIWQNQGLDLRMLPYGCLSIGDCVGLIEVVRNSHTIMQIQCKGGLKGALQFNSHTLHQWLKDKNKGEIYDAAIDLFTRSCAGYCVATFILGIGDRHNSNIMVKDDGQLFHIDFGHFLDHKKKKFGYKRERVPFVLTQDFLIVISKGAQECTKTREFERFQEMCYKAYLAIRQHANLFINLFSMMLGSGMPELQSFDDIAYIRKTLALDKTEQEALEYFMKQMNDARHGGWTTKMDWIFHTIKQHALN
H1047R PIK3CA enzyme, sequence (P27986 whole entry partner): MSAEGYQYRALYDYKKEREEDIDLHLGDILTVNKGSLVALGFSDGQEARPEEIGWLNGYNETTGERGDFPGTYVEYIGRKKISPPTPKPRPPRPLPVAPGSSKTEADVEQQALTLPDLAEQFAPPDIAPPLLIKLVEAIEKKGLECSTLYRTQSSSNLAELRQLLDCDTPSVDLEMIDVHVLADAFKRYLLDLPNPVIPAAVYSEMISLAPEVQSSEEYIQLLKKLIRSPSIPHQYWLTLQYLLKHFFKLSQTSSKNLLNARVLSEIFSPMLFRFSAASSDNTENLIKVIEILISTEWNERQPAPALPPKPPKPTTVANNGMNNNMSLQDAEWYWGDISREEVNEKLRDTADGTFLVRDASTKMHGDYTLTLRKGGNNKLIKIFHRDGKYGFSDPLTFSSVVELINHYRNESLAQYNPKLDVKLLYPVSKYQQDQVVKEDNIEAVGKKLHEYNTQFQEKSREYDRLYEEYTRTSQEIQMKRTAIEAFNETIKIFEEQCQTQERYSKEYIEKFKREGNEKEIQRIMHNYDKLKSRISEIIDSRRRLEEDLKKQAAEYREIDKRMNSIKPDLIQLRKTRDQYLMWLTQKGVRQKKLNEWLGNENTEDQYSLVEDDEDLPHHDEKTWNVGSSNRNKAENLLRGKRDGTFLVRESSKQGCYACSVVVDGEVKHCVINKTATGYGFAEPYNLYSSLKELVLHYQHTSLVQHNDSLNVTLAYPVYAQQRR

N#Cc1ccc(-c2cc(NC(=O)c3cc(F)cc(C(F)(F)F)c3)c3c(c2)C(=O)N[C@@H]3c2cc(F)ccc2Cl)cn1 (single isomer, unassigned) [Compound I-1000]
IC50 (cells): < 1000 nM
IC50 (H1047R PIK3CA enzyme): ≤ 100 nM

Nc1cc(NC(=O)N2C[C@@H](O)c3cc(F)ccc32)c2c(c1)C(=O)N[C@H]2c1cc(F)ccc1Cl (single isomer, unassigned) [Compound I-2411]
IC50 (cells): 10000 to 36000 nM
IC50 (H1047R PIK3CA enzyme): ≤ 100 nM

CC(C)(O)c1ncc(-c2cc(NC(=O)c3cc(F)cc(C(F)(F)F)c3)c3c(c2)C(=O)NC3c2cc(F)ccc2Cl)cn1 (stereo not shown) [Compound I-941]
IC50 (cells): < 1000 nM
IC50 (H1047R PIK3CA enzyme): 100 to 500 nM

O=C1N[C@@H](c2cc(F)ccc2Cl)c2c(NC(=O)N3C[C@@H](O)c4cc(F)ccc43)cc(-c3cnn(C(F)F)c3)cc21 (single isomer, unassigned) [Compound I-2477]
IC50 (cells): < 1000 nM
IC50 (H1047R PIK3CA enzyme): ≤ 100 nM

O=C(Nc1cc(-n2cc(F)cn2)cc2c1C(c1cc(F)ccc1Cl)NC2=O)c1cc(F)cc(C(F)(F)F)c1 (stereo not shown) [Compound I-1146]
IC50 (cells): < 1000 nM
IC50 (H1047R PIK3CA enzyme): ≤ 100 nM

O=C(Nc1cc(-c2ccc3nccnc3c2)cc2c1C(c1cc(F)ccc1Cl)NC2=O)c1cc(F)cc(C(F)(F)F)c1 (stereo not shown) [Compound I-1012]
IC50 (cells): < 1000 nM
IC50 (H1047R PIK3CA enzyme): ≤ 100 nM

CC(C)(O)CNc1cc(NC(=O)c2cc(F)cc(C(F)(F)F)c2)c2c(c1)C(=O)N[C@@H]2c1cc(F)ccc1Cl [Compound I-900]
IC50 (cells): < 1000 nM
IC50 (H1047R PIK3CA enzyme): ≤ 100 nM

Cn1cccc(-c2cc(NC(=O)c3cc(F)cc(C(F)(F)F)c3)c3c(c2)C(=O)NC3c2cc(F)ccc2Cl)c1=O (stereo not shown) [Compound I-901]
IC50 (cells): 1000 to 5000 nM
IC50 (H1047R PIK3CA enzyme): 100 to 500 nM

CC(C)(O)c1cc(NC(=O)c2cc(F)cc(C(F)(F)F)c2)c2c(c1)C(=O)N[C@H]2c1cc(F)ccc1C(F)F [Compound I-264]
IC50 (cells): 1000 to 5000 nM
IC50 (H1047R PIK3CA enzyme): ≤ 100 nM

CC(C#N)c1cc(NC(=O)c2cc(F)cc(C(F)(F)F)c2)c2c(c1)C(=O)N[C@H]2c1cc(F)ccc1Cl (stereo partly shown) [Compound I-2290]
IC50 (cells): < 1000 nM
IC50 (H1047R PIK3CA enzyme): ≤ 100 nM

CNC(=O)c1cc(NC(=O)c2cc(F)cc(C(F)(F)F)c2)c2c(c1)C(=O)NC2c1cc(F)ccc1Cl (stereo not shown) [Compound I-493]
IC50 (cells): < 1000 nM
IC50 (H1047R PIK3CA enzyme): ≤ 100 nM

Nc1cc(NC(=O)c2cc(F)cc(C(F)(F)F)c2)c2c(c1)C(=O)N[C@H]2c1cc(F)ccc1Cl [Compound I-218]
IC50 (cells): < 1000 nM
IC50 (H1047R PIK3CA enzyme): ≤ 100 nM

Cc1ccccc1C1NC(=O)c2cccc(NC(=O)c3csc4ccc(F)cc34)c21 (stereo not shown) [Compound I-26]
IC50 (cells): 1000 to 5000 nM
IC50 (H1047R PIK3CA enzyme): 100 to 500 nM

O=C(Nc1cc(-c2cn3ccnc3cn2)cc2c1C(c1cc(F)ccc1Cl)NC2=O)c1cc(F)cc(C(F)(F)F)c1 (stereo not shown) [Compound I-946]
IC50 (cells): < 1000 nM
IC50 (H1047R PIK3CA enzyme): ≤ 100 nM

N#Cc1ncc(-c2cc(NC(=O)c3cc(F)cc(C(F)(F)F)c3)c3c(c2)C(=O)N[C@@H]3c2cc(F)ccc2Cl)cn1 [Compound I-980]
IC50 (cells): < 1000 nM
IC50 (H1047R PIK3CA enzyme): ≤ 100 nM

O=C(Nc1cc(-c2cn3ncnc3cn2)cc2c1C(c1cc(F)ccc1C(F)F)NC2=O)c1cc(F)cc(C(F)(F)F)c1 (stereo not shown) [Compound I-2185]
IC50 (cells): < 1000 nM
IC50 (H1047R PIK3CA enzyme): ≤ 100 nM

N#Cc1cnccc1-c1cc(NC(=O)c2cc(F)cc(C(F)(F)F)c2)c2c(c1)C(=O)NC2c1cc(F)ccc1Cl (stereo not shown) [Compound I-1098]
IC50 (cells): < 1000 nM
IC50 (H1047R PIK3CA enzyme): ≤ 100 nM

O=C(Nc1cc(Nc2cn[nH]c2)cc2c1C(c1cc(F)ccc1Cl)NC2=O)c1cc(F)cc(C(F)(F)F)c1 (stereo not shown) [Compound I-994]
IC50 (cells): < 1000 nM
IC50 (H1047R PIK3CA enzyme): ≤ 100 nM

O=C1N[C@H](c2cc(F)ccc2Cl)c2c(NC(=O)N3C[C@@](O)(C(F)(F)F)c4cc(F)ccc43)cc(-n3ccnn3)cc21 (single isomer, unassigned) [Compound I-2547]
IC50 (cells): < 1000 nM
IC50 (H1047R PIK3CA enzyme): ≤ 100 nM

O=C1N[C@@H](c2cc(F)ccc2Cl)c2c(NC(=O)N3C[C@H](O)c4cc(F)ccc43)cc(-n3ccccc3=O)cc21 (single isomer, unassigned) [Compound I-2350]
IC50 (cells): 5000 to 10000 nM
IC50 (H1047R PIK3CA enzyme): ≤ 100 nM
